Measurements from US9815839B2, “N-(1-(substituted-phenyl)ethyl)-9H-purin-6-amines as PI3K inhibitors” (Incyte Corporation, priority 2010, dated 2017).
Counter-ions that a name gives are not always drawn.

Legend:
PI3Kδ (p110δ/p85α) = biological target: T1, PI3Kδ (p110δ/p85α) (Homo sapiens, UniProt O00329); experiment: PI3Kδ scintillation proximity assay; type: biochemical; details: 20 μM ATP, 4 nM PI3Kδ
T1 construct: purchased Millipore (Bedford, Mass.)
Method in brief: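 p110δ/p85α (4 nM) phosphorylated 20 μM PIP2 with 20 μM ATP plus [γ-33P]ATP in 20 mM MOPS pH 6.7, 10 mM MgCl2, 5 mM DTT, 0.03% CHAPS, 0.5% DMSO, 210 min at room temperature. EDTA quench, WGA SPA bead capture, scintillation counting; IC50 from log-concentration fit.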

[1] = tested on: Pfeiffer cell line (diffuse large B cell lymphoma); experiment: Pfeiffer cell proliferation assay; type: cell-based; details: Homo sapiens, Pfeiffer, Pfeiffer cells, 3-4 days plus 12 hours [3H]-thymidine incorporation
Method in brief: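 Pfeiffer DLBCL cells grown in RPMI/10% FBS at 2×10^3 cells/well in ultra-low-binding plates with a range of compound concentrations for 3-4 days. [3H]-thymidine (1 μCi/well) was then added for 12 h more. Incorporation was read by filtration and scintillation counting.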

T1 sequence (O00329 whole entry, species assumed): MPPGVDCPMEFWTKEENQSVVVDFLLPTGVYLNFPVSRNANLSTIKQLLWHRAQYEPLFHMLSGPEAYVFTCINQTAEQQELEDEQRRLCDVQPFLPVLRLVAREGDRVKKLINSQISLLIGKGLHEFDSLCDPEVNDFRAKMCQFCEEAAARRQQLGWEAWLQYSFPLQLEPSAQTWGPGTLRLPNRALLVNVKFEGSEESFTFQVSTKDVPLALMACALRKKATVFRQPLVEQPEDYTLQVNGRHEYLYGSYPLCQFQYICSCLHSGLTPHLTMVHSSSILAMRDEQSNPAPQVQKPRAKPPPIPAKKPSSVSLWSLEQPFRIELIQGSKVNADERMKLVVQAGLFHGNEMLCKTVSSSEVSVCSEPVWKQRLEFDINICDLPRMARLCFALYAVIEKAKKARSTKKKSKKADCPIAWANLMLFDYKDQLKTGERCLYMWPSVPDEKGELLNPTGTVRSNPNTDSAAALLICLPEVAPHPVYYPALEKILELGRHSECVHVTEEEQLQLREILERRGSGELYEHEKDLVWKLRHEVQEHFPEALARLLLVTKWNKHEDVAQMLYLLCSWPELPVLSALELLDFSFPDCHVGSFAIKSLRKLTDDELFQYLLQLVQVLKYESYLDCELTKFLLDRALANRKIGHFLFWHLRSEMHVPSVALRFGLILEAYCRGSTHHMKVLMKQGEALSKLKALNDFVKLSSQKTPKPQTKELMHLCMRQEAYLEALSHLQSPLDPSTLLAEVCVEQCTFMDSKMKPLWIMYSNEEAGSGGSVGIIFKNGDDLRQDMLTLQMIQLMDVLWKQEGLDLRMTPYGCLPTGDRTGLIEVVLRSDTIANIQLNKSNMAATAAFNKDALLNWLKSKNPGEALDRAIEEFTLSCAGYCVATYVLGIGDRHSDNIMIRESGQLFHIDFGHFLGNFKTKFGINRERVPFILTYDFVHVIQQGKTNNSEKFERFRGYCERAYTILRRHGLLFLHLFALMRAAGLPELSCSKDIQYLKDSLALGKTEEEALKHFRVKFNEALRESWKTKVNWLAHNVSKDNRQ
T1 sequence (P27986 whole entry partner, species assumed): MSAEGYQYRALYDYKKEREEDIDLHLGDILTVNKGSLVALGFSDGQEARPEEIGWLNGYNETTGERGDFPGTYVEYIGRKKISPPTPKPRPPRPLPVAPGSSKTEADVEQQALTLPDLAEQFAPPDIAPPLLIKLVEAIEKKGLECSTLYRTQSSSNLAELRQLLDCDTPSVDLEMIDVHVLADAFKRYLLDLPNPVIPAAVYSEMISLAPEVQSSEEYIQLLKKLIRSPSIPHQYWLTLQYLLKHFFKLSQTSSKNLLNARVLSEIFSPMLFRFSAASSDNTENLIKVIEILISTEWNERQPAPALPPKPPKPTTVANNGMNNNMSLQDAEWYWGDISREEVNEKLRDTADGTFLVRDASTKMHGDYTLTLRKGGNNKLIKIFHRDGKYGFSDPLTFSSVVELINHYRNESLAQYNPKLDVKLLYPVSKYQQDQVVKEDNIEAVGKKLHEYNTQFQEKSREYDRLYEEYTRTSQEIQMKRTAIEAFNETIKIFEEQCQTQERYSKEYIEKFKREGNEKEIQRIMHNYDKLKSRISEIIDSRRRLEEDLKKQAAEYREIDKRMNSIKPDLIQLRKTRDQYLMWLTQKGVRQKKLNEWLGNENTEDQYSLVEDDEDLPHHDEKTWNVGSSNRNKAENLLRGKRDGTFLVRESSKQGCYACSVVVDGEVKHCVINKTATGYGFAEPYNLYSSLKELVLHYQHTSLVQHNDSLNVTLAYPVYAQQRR

In the case of `COc1c(C(C)Nc2ncnc3[nH]cnc23)cc(Cl)c(C)c1-c1cnn(C2CCNCC2)c1` (stereo not drawn) [Example 174, N-{1-[5-chloro-2-methoxy-4-methyl-3-(1-piperidin-4-yl-1H-pyrazol-4-yl)phenyl]ethyl}-9H-purin-6-amine tris(trifluoroacetate)], the IC50 (PI3Kδ (p110δ/p85α)) is reported as under 50 nM and the IC50 [1] is reported as under 100 nM.

`COc1c(C(C)Nc2ncnc3[nH]cnc23)cc(Cl)c(C)c1-c1ccc(F)c(C(F)(F)F)c1` (stereo not drawn) [Example 93, N-{1-[5-chloro-4′-fluoro-2-methoxy-6-methyl-3′-(trifluoromethyl)biphenyl-3-yl]ethyl}-9H-purin-6-amine] gave an IC50 (PI3Kδ (p110δ/p85α)) of 50 to 100 nM and an IC50 [1] of over 1000 nM.

For `COc1c(C(C)Nc2ncnc3[nH]cnc23)cc(Cl)c(C)c1-c1cnc(N(C)C)nc1` (stereo not drawn) [Example 20, N-(1-{5-chloro-3-[2-(dimethylamino)pyrimidin-5-yl]-2-methoxy-4-methylphenyl}ethyl)-9H-purin-6-amine], the IC50 (PI3Kδ (p110δ/p85α)) was under 50 nM and the IC50 [1] was 100 to 500 nM.

`COc1c(C(C)Nc2ncnc3[nH]cnc23)cc(Cl)c(C)c1-c1c(C)noc1C` (stereo not drawn) [Example 22, N-{1-[5-chloro-3-(3,5-dimethylisoxazol-4-yl)-2-methoxy-4-methylphenyl]ethyl]-9H-purin-6-amine] gave an IC50 (PI3Kδ (p110δ/p85α)) of under 50 nM and an IC50 [1] of under 100 nM.

Molecule `Cc1n[nH]c(C)c1-c1c(C)c(Cl)cc(C(C)Nc2ncnc3[nH]cnc23)c1-c1cc(F)cc(F)c1` (stereo not drawn) [Example 107, N-{1-[4-chloro-6-(3,5-dimethyl-1H-pyrazol-4-yl)-3′,5′-difluoro-5-methylbiphenyl-2-yl]ethyl}-9H-purin-6-amine] has an IC50 (PI3Kδ (p110δ/p85α)) of under 50 nM and an IC50 [1] of 100 to 500 nM.

With `COc1c(C(C)Nc2ncnc3[nH]cnc23)cc(Cl)c(Cl)c1C1CN(CC2CCOC2)C1` (stereo not drawn) [Example 202, N-(1-{4,5-dichloro-2-methoxy-3-[1-(tetrahydrofuran-3-ylmethyl)azetidin-3-yl]phenyl}ethyl)-9H-purin-6-amine] the IC50 (PI3Kδ (p110δ/p85α)) was under 50 nM and the IC50 [1] was under 100 nM.

Molecule `Cc1noc(C)c1-c1c(C)c(Cl)cc(C(C)Nc2ncnc3[nH]cnc23)c1-c1cccc(F)c1` (stereo not drawn) [Example 71, N-{1-[4-chloro-6-(3,5-dimethylisoxazol-4-yl)-3′-fluoro-5-methylbiphenyl-2-yl]ethyl}-9H-purin-6-amine trifluoroacetate] has an IC50 (PI3Kδ (p110δ/p85α)) of under 50 nM and an IC50 [1] of under 100 nM.

`COc1c(C(C)Nc2ncnc3[nH]cnc23)cc(Cl)c(C)c1-c1ccc(N2CCOCC2)nc1` (stereo not drawn) [Example 48, N-{1-[5-chloro-2-methoxy-4-methyl-3-(6-morpholin-4-ylpyridin-3-yl)phenyl]ethyl}-9H-purin-6-amine] was tested, and the IC50 (PI3Kδ (p110δ/p85α)) was under 50 nM and the IC50 [1] was under 100 nM.

For `COCc1cccc(-c2c(C)c(Cl)cc(C(C)Nc3ncnc4[nH]cnc34)c2OC)c1` (stereo not drawn) [Example 44, N-{1-[5-chloro-2-methoxy-3′-(methoxymethyl)-6-methylbiphenyl-3-yl]ethyl}-9H-purin-6-amine], the IC50 (PI3Kδ (p110δ/p85α)) was under 50 nM and the IC50 [1] was 100 to 500 nM.

With `CC(=O)Nc1ccc(-c2c(C)c(Cl)cc(C(C)Nc3ncnc4[nH]cnc34)c2-c2cc(F)cc(F)c2)cc1` (stereo not drawn) [Example 83, N-{5′-chloro-3″,5″-difluoro-6′-methyl-3′-[1-(9H-purin-6-ylamino)ethyl]-1,1′:2′,1″-terphenyl-4-yl}acetamide] the IC50 (PI3Kδ (p110δ/p85α)) was under 50 nM and the IC50 [1] was under 100 nM.

`CCOc1c(C(C)Nc2ncnc3[nH]cnc23)cc(Cl)c(C#N)c1-c1ccc(C(C)O)nc1` (stereo not drawn) [Example 180, 6-chloro-3-ethoxy-2-[6-(1-hydroxyethyl)pyridin-3-yl]-4-[1-(9H-purin-6-ylamino)ethyl]benzonitrile bis(2,2,2-trifluoroacetate)] gave an IC50 (PI3Kδ (p110δ/p85α)) of under 50 nM and an IC50 [1] of under 100 nM.

For `Cc1c(Cl)cc(C(C)Nc2ncnc3[nH]cnc23)c(-c2cccc(F)c2)c1N1CCOC1=O` (stereo not drawn) [Example 7, 3-{4-Chloro-3′-fluoro-3-methyl-6-[1-(9H-purin-6-ylamino)ethyl]biphenyl-2-yl}-1,3-oxazolidin-2-one], the IC50 (PI3Kδ (p110δ/p85α)) was under 50 nM and the IC50 [1] was under 100 nM.

Molecule `COc1c(C(C)Nc2ncnc3[nH]cnc23)cc(Cl)c(C)c1-c1ccnc(Cl)c1` (stereo not drawn) [Example 98, N-{1-[5-chloro-3-(2-chloropyridin-4-yl)-2-methoxy-4-methylphenyl]ethyl}-9H-purin-6-amine] has an IC50 (PI3Kδ (p110δ/p85α)) of under 50 nM and an IC50 [1] of under 100 nM.

`COc1c(C(C)Nc2ncnc3[nH]cnc23)cc(Cl)c(C)c1-c1cc(Cl)cc(Cl)c1` (stereo not drawn) [Example 47, N-[1-(3′,5,5′-trichloro-2-methoxy-6-methylbiphenyl-3-yl)ethyl]-9H-purin-6-amine] gave an IC50 (PI3Kδ (p110δ/p85α)) of 100 to 250 nM and an IC50 [1] of over 1000 nM.

Work on `COc1c(C(C)Nc2ncnc3[nH]cnc23)cc(Cl)c(C)c1N1CCC(O)CC1` (stereo not drawn) [Example 60, 1-{3-Chloro-6-methoxy-2-methyl-5-[1-(9H-purin-6-ylamino)ethyl]phenyl}piperidin-4-ol] yielded an IC50 (PI3Kδ (p110δ/p85α)) of under 50 nM and an IC50 [1] of over 1000 nM.

`Cc1c(Cl)cc(C(C)Nc2ncnc3[nH]cnc23)c(-c2ccccc2)c1-c1cnc(N(C)C)nc1` (stereo not drawn) [Example 15, N-(1-{4-chloro-6-[2-(dimethylamino)pyrimidin-5-yl]-5-methylbiphenyl-2-yl}ethyl)-9H-purin-6-amine] gave an IC50 (PI3Kδ (p110δ/p85α)) of under 50 nM and an IC50 [1] of under 100 nM.

Work on `COc1c(C(C)Nc2ncnc3[nH]cnc23)cc(Cl)c(Cl)c1C1CN(Cc2cscn2)C1` (stereo not drawn) [Example 204, N-(1-{4,5-Dichloro-2-methoxy-3-[1-(1,3-thiazol-4-ylmethyl)azetidin-3-yl]phenyl}ethyl)-9H-purin-6-amine] yielded an IC50 (PI3Kδ (p110δ/p85α)) of under 50 nM and an IC50 [1] of under 100 nM.

For `COc1c(C(C)Nc2ncnc3[nH]cnc23)cc(Cl)c(Cl)c1C1CN(CCCC(F)(F)F)C1` (stereo not drawn) [Example 203, N-(1-{4,5-Dichloro-2-methoxy-3-[1-(4,4,4-trifluorobutyl)azetidin-3-yl]phenyl}ethyl)-9H-purin-6-amine], the IC50 (PI3Kδ (p110δ/p85α)) was under 50 nM and the IC50 [1] was under 100 nM.

In the case of `CC(Nc1ncnc2[nH]cnc12)c1cc(Cl)cc(-c2cn[nH]c2)c1-c1cc(F)cc(F)c1` (stereo not drawn) [Example 124, N-{1-[4-Chloro-3′,5′-difluoro-6-(1H-pyrazol-4-yl)biphenyl-2-yl]ethyl}-9H-purin-6-amine], the IC50 (PI3Kδ (p110δ/p85α)) is reported as under 50 nM and the IC50 [1] is reported as under 100 nM.

For `COc1c(C(C)Nc2ncnc3[nH]cnc23)cc(Cl)c(C)c1-c1cc(F)cc(C(N)=O)c1` (stereo not drawn) [Example 110, 3′-chloro-5-fluoro-6′-methoxy-2′-methyl-5′-[1-(9H-purin-6-ylamino)ethyl]biphenyl-3-carboxamide], the IC50 (PI3Kδ (p110δ/p85α)) was under 50 nM and the IC50 [1] was 100 to 500 nM.

`Cc1c(Cl)cc(C(C)Nc2ncnc3[nH]cnc23)c(-c2ccccc2)c1-c1cc(F)nc(F)c1` (stereo not drawn) [Example 13, N-{1-[4-chloro-6-(2,6-difluoropyridin-4-yl)-5-methylbiphenyl-2-yl]ethyl}-9H-purin-6-amine] showed an IC50 (PI3Kδ (p110δ/p85α)) of under 50 nM and an IC50 [1] of under 100 nM.

`Cc1c(Cl)cc(C(C)Nc2ncnc3[nH]cnc23)c(-c2cccc(F)c2)c1-n1cnnc1` (stereo not drawn) [Example 11, N-{1-[4-chloro-3′-fluoro-5-methyl-6-(4H-1,2,4-triazol-4-yl)biphenyl-2-yl]ethyl}-9H-purin-6-amine] gave an IC50 (PI3Kδ (p110δ/p85α)) of under 50 nM and an IC50 [1] of under 100 nM.

`Cc1c(Cl)cc(C(C)Nc2ncnc3[nH]cnc23)c(-c2cccc(F)c2)c1-c1cn[nH]c1` (stereo not drawn) [Example 72, N-{1-[4-Chloro-3′-fluoro-5-methyl-6-(1H-pyrazol-4-yl)biphenyl-2-yl]ethyl}-9H-purin-6-amine trifluoroacetate] showed an IC50 (PI3Kδ (p110δ/p85α)) of under 50 nM and an IC50 [1] of under 100 nM.

`CCOc1c(C(C)Nc2ncnc3[nH]cnc23)cc(Cl)c(C#N)c1C1CN(CC)C1` (stereo not drawn) [Example 213, 6-Chloro-3-ethoxy-2-(1-ethylazetidin-3-yl)-4-[1-(9H-purin-6-ylamino)ethyl]benzonitrile bis(trifluoroacetate)] was tested, and the IC50 (PI3Kδ (p110δ/p85α)) was under 50 nM and the IC50 [1] was under 100 nM.

`Cc1c(Cl)cc(C(C)Nc2ncnc3[nH]cnc23)c(-c2cc(F)cc(F)c2)c1-c1cccnc1` (stereo not drawn) [Example 78, N-[1-(4-chloro-3′,5′-difluoro-5-methyl-6-pyridin-3-ylbiphenyl-2-yl)ethyl]-9H-purin-6-amine] gave an IC50 (PI3Kδ (p110δ/p85α)) of under 50 nM and an IC50 [1] of under 100 nM.

`COc1ncc(-c2c(C)c(Cl)cc(C(C)Nc3ncnc4[nH]cnc34)c2-c2cc(F)cc(F)c2)cn1` (stereo not drawn) [Example 82, N-{1-[4-chloro-3′,5′-difluoro-6-(2-methoxypyrimidin-5-yl)-5-methylbiphenyl-2-yl]ethyl}-9H-purin-6-amine] gave an IC50 (PI3Kδ (p110δ/p85α)) of under 50 nM and an IC50 [1] of under 100 nM.

`COc1c(C(C)Nc2ncnc3[nH]cnc23)cc(Cl)c(C)c1-c1ccc(Cl)c(F)c1` (stereo not drawn) [Example 92, N-{1-(4′,5-dichloro-3'-fluoro-2-methoxy-6-methylbiphenyl-3-yl)ethyl]-9H-purin-6-amine] gave an IC50 (PI3Kδ (p110δ/p85α)) of 100 to 250 nM and an IC50 [1] of 100 to 500 nM.

`COc1c(C(C)Nc2ncnc3[nH]cnc23)cc(Cl)c(C)c1-c1ccnc(N2CCOCC2)c1F` (stereo not drawn) [Example 49, N-{1-[5-chloro-3-(3-fluoro-2-morpholin-4-ylpyridin-4-yl)-2-methoxy-4-methylphenyl]ethyl}-9H-purin-6-amine] showed an IC50 (PI3Kδ (p110δ/p85α)) of under 50 nM and an IC50 [1] of under 100 nM.

Work on `COc1c(C(C)Nc2ncnc3[nH]cnc23)cc(Cl)c(C)c1-c1cc(C(=O)N(C)C)cnn1` (stereo not drawn) [Example 178, 6-{3-chloro-6-methoxy-2-methyl-5-[1-(9H-purin-6-ylamino)ethyl]phenyl}-N,N-dimethylpyridazine-4-carboxamide bis(2,2,2-trifluoroacetate)] yielded an IC50 (PI3Kδ (p110δ/p85α)) of under 50 nM and an IC50 [1] of under 100 nM.

`COc1c(C(C)Nc2ncnc3[nH]cnc23)cc(Cl)c(C)c1-c1ccc(NC(C)=O)cc1` (stereo not drawn) [Example 27, N-{3′-chloro-6′-methoxy-2′-methyl-5′-[1-(9H-purin-6-ylamino)ethyl]biphenyl-4-yl}acetamide] was tested, and the IC50 (PI3Kδ (p110δ/p85α)) was under 50 nM and the IC50 [1] was 100 to 500 nM.
